Calls of active or inactive are those of the source.
Tests used:
Staphylococcus aureus [1] = assay: Antibacterial activity against methicillin-sensitive Staphylococcus aureus ATCC 25923 after 20 to 24 hrs; assay type: functional
Staphylococcus aureus [2] = assay: Bactericidal activity against Methicillin-sensitive Staphylococcus aureus ATCC 29213 assessed as log reduction in bacterial cell number at 8 times MIC after 24 hrs by time-kill curve analysis; assay type: functional, organism-based
Staphylococcus aureus [3] = assay: Bactericidal activity against methicillin-sensitive Staphylococcus aureus ATCC 29213 assessed as log reduction in bacterial cell number at MIC after 8 hrs by time-kill curve analysis; assay type: functional
Staphylococcus aureus [4] = assay: Antibacterial activity against methicillin-sensitive Staphylococcus aureus ATCC 29213 after 20 to 24 hrs in presence of 50% heat inactivated bovine serum
Staphylococcus aureus [5] = assay: Bactericidal activity against methicillin-sensitive Staphylococcus aureus ATCC 29213 after 24 and 48 hrs; assay type: functional
Staphylococcus aureus [6] = assay: Bactericidal activity against Methicillin-sensitive Staphylococcus aureus ATCC 29213 assessed as log reduction in bacterial cell number at 4 times MIC after 24 hrs by time kill curve analysis; assay type: functional, organism-based
Enterococcus = assay: Antibacterial activity against vancomycin-resistant Enterococcus after 20 to 24 hrs; assay type: functional
Staphylococcus aureus [7] = assay: Antibacterial activity against Staphylococcus aureus ATCC 29213 after 20 to 24 hrs in presence of 2% heat inactivated bovine serum; assay type: functional
Staphylococcus aureus [8] = assay: Ratio of MBC for methicillin-sensitive Staphylococcus aureus ATCC 29213 to MIC90 for methicillin-sensitive Staphylococcus aureus ATCC 29213; assay type: functional
Staphylococcus aureus [9] = assay: Bactericidal activity against Methicillin-sensitive Staphylococcus aureus ATCC 29213 assessed as log reduction in bacterial cell number at 2 times MIC after 24 hrs by time kill curve analysis; assay type: functional, organism-based
Escherichia coli [10] = assay: Antibacterial activity against Escherichia coli ATCC 25922 after 20 to 24 hrs in presence of polymyxin B nonapeptide; assay type: functional
Staphylococcus aureus [11] = assay: Bactericidal activity against […] Staphylococcus aureus clinical isolate USA300 assessed as log reduction in bacterial cell number at 2 times MIC after 24 hrs by time-kill curve analysis; assay type: functional, organism-based
Staphylococcus aureus [12] = assay: Antibacterial activity against methicillin-sensitive Staphylococcus aureus ATCC 49775 after 20 to 24 hrs in presence of 50% heat inactivated bovine serum; assay type: functional
Staphylococcus aureus [13] = assay: Bactericidal activity against […] Staphylococcus aureus clinical isolate USA300 assessed as log reduction in bacterial cell number at 8 times MIC after 8 hrs by time-kill curve analysis; assay type: functional
Staphylococcus aureus [14] = assay: Antibacterial activity against methicillin-sensitive Staphylococcus aureus ATCC 29213 after 20 to 24 hrs; assay type: functional
Staphylococcus aureus [15] = assay: Bactericidal activity against methicillin-sensitive Staphylococcus aureus ATCC 29213 assessed as log reduction in bacterial cell number at 2 times MIC after 8 hrs by time-kill curve analysis; assay type: functional
[16] = Selectivity index, ratio of GI50 for human HepG2 cells to MIC50 for methicillin-sensitive Staphylococcus aureus clinical isolate; assay type: functional
Staphylococcus aureus [17] = assay: Antibacterial activity against methicillin-sensitive Staphylococcus aureus ATCC 6538 after 20 to 24 hrs; assay type: functional
Escherichia coli [18] = assay: Ratio of MIC90 for Escherichia coli ATCC 25922 to MIC90 for Escherichia coli ATCC 25922 in presence of polymyxin B nonapeptide; assay type: functional
[19] = Cytotoxicity against human HepG2 cells after 24 hrs by WST-1 based colorimetric assay; assay type: cell-based
Staphylococcus aureus [20] = assay: Bactericidal activity against methicillin-sensitive Staphylococcus aureus ATCC 6538 after 24 and 48 hrs; assay type: functional
Staphylococcus aureus [21] = assay: Antibacterial activity against methicillin-sensitive Staphylococcus aureus ATCC 49775 after 20 to 24 hrs; assay type: functional
Staphylococcus aureus [22] = assay: Bactericidal activity against […] Staphylococcus aureus clinical isolate USA300 assessed as log reduction in bacterial cell number at MIC after 24 hrs by time-kill curve analysis; assay type: functional, organism-based
[23] = Toxicity in sheep erythrocytes assessed as hemolysis at 600 uM after 30 mins; assay type: cell-based, Ovis aries; settings: erythrocyte, 0.5 h
Staphylococcus aureus [24] = assay: Bactericidal activity against methicillin-sensitive Staphylococcus aureus clinical isolate USA300 assessed as log reduction in bacterial cell number at MIC after 8 hrs by time-kill curve analysis; assay type: functional
Staphylococcus aureus [25] = assay: Bactericidal activity against methicillin-sensitive Staphylococcus aureus ATCC 49775 after 24 and 48 hrs; assay type: functional
Staphylococcus aureus [26] = assay: Bactericidal activity against […] Staphylococcus aureus clinical isolate USA300 assessed as log reduction in bacterial cell number at 2 times MIC after 8 hrs by time-kill curve analysis; assay type: functional
Escherichia coli [27] = assay: Antibacterial activity against Escherichia coli ATCC 25922 after 20 to 24 hrs; assay type: functional
Staphylococcus aureus [28] = assay: Antibacterial activity against methicillin-resistant Staphylococcus aureus after 20 to 24 hrs; assay type: functional
Staphylococcus aureus [29] = assay: Bactericidal activity against methicillin-sensitive Staphylococcus aureus ATCC 25923 after 24 and 48 hrs; assay type: functional
Pseudomonas aeruginosa [30] = assay: Antibacterial activity against Pseudomonas aeruginosa ATCC 27853 after 20 to 24 hrs in presence of polymyxin B nonapeptide; assay type: functional
Pseudomonas aeruginosa [31] = assay: Antibacterial activity against Pseudomonas aeruginosa ATCC 27853 after 20 to 24 hrs; assay type: functional
Staphylococcus aureus [32] = assay: Ratio of MBC for methicillin-sensitive Staphylococcus aureus ATCC 49775 to MIC90 for methicillin-sensitive Staphylococcus aureus ATCC 49775; assay type: functional
Staphylococcus aureus [33] = assay: Antibacterial activity against methicillin-sensitive Staphylococcus aureus ATCC 29213 after 20 to 24 hrs in presence of 50% heat inactivated bovine serum; remark: listed apart in the source
Staphylococcus aureus [34] = assay: Bactericidal activity against methicillin-resistant Staphylococcus aureus clinical isolate after 24 and 48 hrs; assay type: functional
Staphylococcus aureus [35] = assay: Ratio of MBC for methicillin-sensitive Staphylococcus aureus ATCC 6538 to MIC90 for methicillin-sensitive Staphylococcus aureus ATCC 6538; assay type: functional
Staphylococcus aureus [36] = assay: Antibacterial activity against methicillin-resistant Staphylococcus aureus clinical isolate after 20 to 24 hrs; assay type: functional
Staphylococcus aureus [37] = assay: Bactericidal activity against methicillin-sensitive Staphylococcus aureus ATCC 29213 assessed as log reduction in bacterial cell number at 8 times MIC after 8 hrs by time-kill curve analysis; assay type: functional
Staphylococcus aureus [38] = assay: Bactericidal activity against Methicillin-sensitive Staphylococcus aureus ATCC 29213 assessed as log reduction in bacterial cell number at MIC after 8 hrs by time kill curve analysis
Staphylococcus aureus [39] = assay: Bactericidal activity against […] Staphylococcus aureus clinical isolate USA300 assessed as log reduction in bacterial cell number at 4 times MIC after 8 hrs by time-kill curve analysis; assay type: functional
[40] = Cytotoxicity against human HEL299 cells after 24 hrs by WST-1 based colorimetric assay; assay type: cell-based, HEL 299
Staphylococcus aureus [41] = assay: Bactericidal activity against […] Staphylococcus aureus clinical isolate USA300 assessed as log reduction in bacterial cell number at 8 times MIC after 24 hrs by time-kill curve analysis; assay type: functional, organism-based
Pseudomonas aeruginosa [42] = assay: Ratio of MIC90 for Pseudomonas aeruginosa ATCC 27853 to MIC90 for Pseudomonas aeruginosa ATCC 27853 in presence of polymyxin B nonapeptide; assay type: functional
[43] = Selectivity index, ratio of GI50 for human HEL299 cells to MIC50 for methicillin-sensitive Staphylococcus aureus clinical isolate; assay type: functional, HEL 299
Staphylococcus aureus [44] = assay: Antibacterial activity against methicillin-sensitive Staphylococcus aureus ATCC 29213 after 20 to 24 hrs in presence of 50% heat inactivated bovine serum; assay type: functional
Staphylococcus aureus [45] = assay: Bactericidal activity against […] Staphylococcus aureus clinical isolate USA300 assessed as log reduction in bacterial cell number at 4 times MIC after 24 hrs by time-kill curve analysis; assay type: functional, organism-based
Staphylococcus aureus [46] = assay: Antibacterial activity against methicillin-sensitive Staphylococcus aureus ATCC 6538 after 20 to 24 hrs in presence of 50% heat inactivated bovine serum; assay type: functional
[47] = Selectivity index, ratio of GI50 for human HEL299 cells to MIC50 for methicillin-resistant Staphylococcus aureus clinical isolate; assay type: functional, HEL 299
Staphylococcus aureus [48] = assay: Ratio of MBC for methicillin-sensitive Staphylococcus aureus ATCC 25923 to MIC90 for methicillin-sensitive Staphylococcus aureus ATCC 25923; assay type: functional
[49] = Selectivity index, ratio of GI50 for human HepG2 cells to MIC50 for methicillin-resistant Staphylococcus aureus clinical isolate; assay type: functional
Staphylococcus aureus [50] = assay: Bactericidal activity against methicillin-sensitive Staphylococcus aureus ATCC 29213 assessed as log reduction in bacterial cell number at 4 times MIC after 8 hrs by time-kill curve analysis; assay type: functional

C/C(=N\NC(=N)N/N=C(\C)c1ccc(Cl)cc1)c1ccc(Cl)cc1
3.8 µM: MIC (Enterococcus)
1.3 µM: MIC90 (Staphylococcus aureus [1]) | MIC90 (Staphylococcus aureus [14]) | MIC90 (Staphylococcus aureus [17]) | MIC90 (Staphylococcus aureus [21]) | MIC90 (Staphylococcus aureus [36])
7.5 µM: MIC (Staphylococcus aureus [28])
2: Selectivity Index [16] | Selectivity Index [43] | Selectivity Index [47] | Selectivity Index [49]
10 µM: MIC90 (Staphylococcus aureus [7]) | MIC90 (Escherichia coli [10])
5 µM: MIC90 (Pseudomonas aeruginosa [30])
10: Ratio (Escherichia coli [18]) | Ratio (Pseudomonas aeruginosa [42])
6.7 µM: GI50 at 24 h [40]
Non-toxic: Activity [23]
> 250 µM: MIC90 (Staphylococcus aureus [4]) | MIC90 (Staphylococcus aureus [12]) | MIC90 (Escherichia coli [27]) | MIC90 (Pseudomonas aeruginosa [31]) | MIC90 (Staphylococcus aureus [33]) | MIC90 (Staphylococcus aureus [44]) | MIC90 (Staphylococcus aureus [46])
>=4 log10CFU/ml: Activity (Staphylococcus aureus [3]) | Activity (Staphylococcus aureus [13]) | Activity (Staphylococcus aureus [15]) | Activity (Staphylococcus aureus [24]) | Activity (Staphylococcus aureus [26]) | Activity (Staphylococcus aureus [37]) | Activity (Staphylococcus aureus [39]) | Activity (Staphylococcus aureus [50])
1: Ratio (Staphylococcus aureus [8]) | Ratio (Staphylococcus aureus [32]) | Ratio (Staphylococcus aureus [35]) | Ratio (Staphylococcus aureus [48])
13.8 µM: GI50 at 24 h [19]
inactive: Activity (Staphylococcus aureus [2]) | Activity (Staphylococcus aureus [6]) | Activity (Staphylococcus aureus [9]) | Activity (Staphylococcus aureus [11]) | Activity (Staphylococcus aureus [22]) | Activity (Staphylococcus aureus [38]) | Activity (Staphylococcus aureus [41]) | Activity (Staphylococcus aureus [45])
2.5 µM: MBC (Staphylococcus aureus [5]) | MBC (Staphylococcus aureus [20]) | MBC (Staphylococcus aureus [25]) | MBC (Staphylococcus aureus [29]) | MBC (Staphylococcus aureus [34])
